# Data as given in patent publication US8822503B2, “2-pyridone compounds” (Taisho Pharmaceutical Co., Ltd, priority 2009, dated 2014).
# Molecular target: T1, human liver GK (Homo sapiens, UniProt P35557)
# T1 construct: GST (glutathione S-transferase) (N); made in house; host or cells: E. coli
# T1 sequence (P35557 1-466 isoform P35557-2): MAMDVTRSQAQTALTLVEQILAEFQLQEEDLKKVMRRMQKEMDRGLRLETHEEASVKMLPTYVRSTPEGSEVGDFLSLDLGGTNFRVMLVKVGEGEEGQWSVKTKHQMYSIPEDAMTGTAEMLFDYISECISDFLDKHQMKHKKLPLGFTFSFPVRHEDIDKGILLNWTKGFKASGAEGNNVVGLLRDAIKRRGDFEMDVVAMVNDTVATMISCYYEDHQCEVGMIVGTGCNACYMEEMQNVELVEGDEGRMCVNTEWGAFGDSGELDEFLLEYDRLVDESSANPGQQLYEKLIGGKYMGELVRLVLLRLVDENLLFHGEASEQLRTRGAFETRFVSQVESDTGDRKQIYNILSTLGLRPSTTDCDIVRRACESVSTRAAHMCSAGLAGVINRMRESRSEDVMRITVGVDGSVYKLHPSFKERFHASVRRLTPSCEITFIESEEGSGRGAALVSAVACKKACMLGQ
# Experiment: GK activation test
# Format: biochemical
# Conditions: test compound concentration needed to activate 50% of maximum activation ability; 4 mM 14C-labeled glucose, 2 mM ATP, room temperature, 20 minutes
# Outline: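 GST-tagged human liver GK from E. coli (0.24 μg/well) with 4 mM 14C-glucose, 2 mM ATP in Hepes-KOH pH 7.1, KCl, MgCl2, DTT, 1% DMSO, 20 min room temperature. Labeled glucose 6-phosphate captured on anion resin, eluted and counted. EC50 = concentration giving half of maximal activation.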
row,Structure (SMILES),EC50 [µM]
1,"Cn1ccc(=O)n(C/C=C(\c2ccc(C(C)(C)C)cc2)c2ccc(Cl)c(=O)[nH]2)c1=O [Example 6-31, 3-[(2E)-3-(4-tert-Butylphenyl)-3-(5-chloro-6-oxo-1,6-dihydropyridin-2-yl)prop-2-en-1-yl]-1-methylpyrimidine-2,4(1H, 3H)-dione]",0.5 to 3
2,"CC(C)(C)c1ccc(/C(=C\Cn2cccnc2=O)c2ccc(Cl)c(=O)[nH]2)cc1 [Example 6-32, 1-[(2E)-3-(4-tert-Butylphenyl)-3-(5-chloro-6-oxo-1,6-dihydropyridin-2-yl)prop-2-en-1-yl]pyrimidin-2(1H)-one]",3 to 10
3,"CC(C)(C)c1ccc(/C(=C\Cn2ncccc2=O)c2ccc(Cl)c(=O)[nH]2)cc1 [Example 6-33, 2-[(2E)-3-(4-tert-Butylphenyl)-3-(5-chloro-6-oxo-1,6-dihydropyridin-2-yl)prop-2-en-1-yl]pyridazin-3(2H)-one]",0.5 to 3
4,"CC(C)(C)c1ccc(/C(=C\Cn2cnccc2=O)c2ccc(Cl)c(=O)[nH]2)cc1 [Example 6-34, 3-[(2E)-3-(4-tert-Butylphenyl)-3-(5-chloro-6-oxo-1,6-dihydropyridin-2-yl)prop-2-en-1-yl]pyrimidin-4(3H)-one]",0.5 to 3
5,"CC(=O)NC/C=C(\c1ccc(C(C)(C)C)cc1)c1ccc(Cl)c(=O)[nH]1 [Example 6-35, N-[(2E)-3-(4-tert-Butylphenyl)-3-(5-chloro-6-oxo-1,6-dihydropyridin-2-yl)prop-2-en-1-yl]acetamide]",3 to 10
6,"Cc1c[nH]n(C/C=C(\c2ccc(C(C)(C)C)cc2)c2ccc(Cl)c(=O)[nH]2)c1=O [Example 6-37, 6-[(1E)-1-(4-tert-Butylphenyl)-3-(4-methyl-5-oxo-2,5-dihydro-1H-pyrazol-1-yl)prop-1-en-1-yl]-3-chloropyridin-2(1H)-one]",0.5 to 3
7,"O=c1[nH]c(C(OC2CCCC2)c2ccc(S(=O)(=O)C3CC3)cc2)ccc1C(F)(F)F (stereo not shown) [Example 7-2, 6-{(Cyclopentyloxy)[4-(cyclopropylsulfonyl)phenyl]methyl}-3-(trifluoromethyl)pyridin-2(1H)-one]",3 to 10
8,"O=c1[nH]c(C(Oc2ccc(F)cc2F)c2ccc(S(=O)(=O)C3CC3)cc2)ccc1C1CC1 (stereo not shown) [Example 7-3, 3-Cyclopropyl-6-[[4-(cyclopropylsulfonyl)phenyl](2,4-difluorophenoxy)methyl]pyridin-2(1H)-one]",0.01 to 0.5
9,"CC(C)(C)c1ccc(C(SC2CCCC2)c2ccc(Cl)c(=O)[nH]2)cc1 (stereo not shown) [Example 7-4, 6-[(4-tert-Butylphenyl)(cyclopentylsulfanyl)methyl]-3-chloropyridin-2(1H)-one]",0.5 to 3
10,"CC(C)(C)c1ccc(C(NC2CCCC2)c2ccc(Cl)c(=O)[nH]2)cc1 (stereo not shown) [Example 7-5, 6-[(4-tert-Butylphenyl)(cyclopentylamino)methyl]-3-chloropyridin-2(1H)-one]",3 to 10
